IC50 data for 24 molecules are collected here from patent publication US20210253575A1, “PYRROLIDINE AMINE COMPOUNDS FOR THE TREATMENT OF AUTOIMMUNE DISEASE” (Hoffmann-La Roche Inc., priority 2018, published 2021).

Molecules are shown by their SMILES.

The test addresses T1, human TLR9 (Homo sapiens, UniProt Q9NR96).
T1 sequence (Q9NR96 26-1032): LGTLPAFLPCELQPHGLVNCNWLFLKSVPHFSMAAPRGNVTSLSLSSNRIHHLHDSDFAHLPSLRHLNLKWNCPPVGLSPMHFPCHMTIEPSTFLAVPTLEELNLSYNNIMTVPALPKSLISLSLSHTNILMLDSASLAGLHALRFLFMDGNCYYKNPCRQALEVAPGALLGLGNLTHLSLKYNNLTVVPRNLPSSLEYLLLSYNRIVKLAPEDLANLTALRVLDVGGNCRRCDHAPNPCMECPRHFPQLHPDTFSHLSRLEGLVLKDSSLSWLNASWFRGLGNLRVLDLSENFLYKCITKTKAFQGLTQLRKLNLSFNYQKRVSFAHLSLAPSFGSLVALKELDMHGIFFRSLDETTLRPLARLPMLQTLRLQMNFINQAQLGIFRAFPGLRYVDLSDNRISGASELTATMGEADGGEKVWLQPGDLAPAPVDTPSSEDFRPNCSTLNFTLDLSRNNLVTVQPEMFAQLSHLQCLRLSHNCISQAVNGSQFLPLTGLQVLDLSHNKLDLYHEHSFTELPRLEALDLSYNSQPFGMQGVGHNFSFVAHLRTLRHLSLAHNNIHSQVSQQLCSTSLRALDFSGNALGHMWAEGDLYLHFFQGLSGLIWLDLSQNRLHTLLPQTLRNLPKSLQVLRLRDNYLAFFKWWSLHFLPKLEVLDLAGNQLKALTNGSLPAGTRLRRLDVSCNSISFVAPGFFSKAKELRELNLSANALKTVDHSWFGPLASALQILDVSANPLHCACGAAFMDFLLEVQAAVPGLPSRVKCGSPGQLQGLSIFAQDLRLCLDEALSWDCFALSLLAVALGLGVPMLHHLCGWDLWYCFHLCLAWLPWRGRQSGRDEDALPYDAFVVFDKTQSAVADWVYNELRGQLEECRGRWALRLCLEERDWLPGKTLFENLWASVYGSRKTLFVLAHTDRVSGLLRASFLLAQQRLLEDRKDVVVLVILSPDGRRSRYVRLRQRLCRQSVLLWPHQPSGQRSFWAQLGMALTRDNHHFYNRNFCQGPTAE
Put plainly: HEK293-Blue-hTLR-9 cells assay (SEAP reporter, ODN2006 stimulation). Particulars: HEK293-Blue-hTLR9 cells, ODN2006 ligand, 20 hrs incubation. The format is cell-based. Here is the method:
The following tests were carried out in order to determine the activity of the compounds of formula (I) in HEK293-Blue-hTLR-7/8/9 cells assay.
HEK293-Blue-hTLR-9 Cells Assay:
A stable HEK293-Blue-hTLR-9 cell line was purchased from InvivoGen (Cat. #: hkb-htlr9, San Diego, Calif., USA). These cells were originally designed for studying the stimulation of human TLR9 by monitoring the activation of NF-κB. A SEAP (secreted embryonic alkaline phosphatase) reporter gene was placed under the control of the IFN-β minimal promoter fused to five NF-κB and AP-1-binding sites. The SEAP was induced by activating NF-κB and AP-1 via stimulating HEK-Blue hTLR9 cells with TLR9 ligands. Therefore the reporter expression was declined by TLR9 antagonist under the stimulation of a ligand, such as ODN2006 (Cat. #: tlrl-2006-1, Invivogen, San Diego, Calif., USA), for incubation of 20 hrs. The cell culture supernatant SEAP reporter activity was determined using QUANTI-Blue™ kit (Cat. #: rep-qb1, Invivogen, San Diego, Calif., USA) at a wavelength of 640 nm, a detection medium that turns purple or blue in the presence of alkaline phosphatase.
HEK293-Blue-hTLR9 cells were incubated at a density of 250,000˜450,000 cells/mL in a volume of 170 μL in a 96-well plate in Dulbecco's Modified Eagle's medium (DMEM) containing 4.5 g/L glucose, 50 U/mL penicillin, […], […], 2 mM L-glutamine, 10% (v/v) heat-inactivated fetal bovine serum with addition of 20 μL test compound in a serial dilution in the presence of final DMSO at 1% and 10 μL of 20 uM ODN2006 in above DMEM, perform incubation under 37° C. in a CO2incubator for 20 hrs. Then 20 μL of the superatant from each well was incubated with 180 μL Quanti-blue substrate solution at 37° C. for 2 hrs and the absorbance was read at 620˜655 nm using a spectrophotometer. The signalling pathway that TLR9 activation leads to downstream NF-κB activation has been widely accepted, and therefore similar reporter assay was modified for evaluating TLR9 antagonist.
Regarding `N#Cc1ccc(N2C[C@H](CN3CCC4(CCNC4)CC3)[C@@H](C(F)(F)F)C2)c2nccnc12` [Example 14, 8-[(3S,4R)-3-(2,8-Diazaspiro[4.5]decan-8-ylmethyl)-4-(trifluoromethyl)pyrrolidin-1-yl]quinoxaline-5-carbonitrile], it took 0.153 µM to reach half-maximal inhibition (IC50). This lies in the sub-micromolar range. With `N#Cc1ccc(N2CC(CN3CCC4(CCNCC4)CC3)C3(CC3)C2)c2nccnc12` (stereo not drawn) [Example 16, 8-[7-(3,9-Diazaspiro[5.5]undecan-3-ylmethyl)-5-azaspiro[2.4]heptan-5-yl]quinoxaline-5-carbonitrile] the figure was 0.05 µM; with `C[C@H]1CN(c2ccc(C#N)c3nccnc23)C[C@@H]1CN1CCC2(CCNCC2)CC1` [Example 17, 8-[(3S,4R)-3-(3,9-diazaspiro[5.5]undecan-3-ylmethyl)-4-methyl-pyrrolidin-1-yl]quinoxaline-5-carbonitrile], 0.134 µM. Consider `N#Cc1ccc(N2CC(CN3C[C@H]4CNC[C@H]4C3)C3(CC3)C2)c2nccnc12` (stereo partly drawn) [Example 18, 8-[7-[[(3aR,6aS)-2,3,3a,4,6,6a-hexahydro-H-pyrrolo[3,4-c]pyrrol-5-yl]methyl]-5-azaspiro[2.4]heptan-5-yl]quinoxaline-5-carbonitrile], for which the concentration for half-maximal inhibition (IC50) was 0.097 µM. This IC50 and that of the molecule before are within 1.5-fold of each other. Under `FC(F)(F)c1ccc(N2CC(CN3CCNCC3)C3(CC3)C2)c2nccnc12` (stereo not drawn) [Example 20, 5-[7-(Piperazin-1-ylmethyl)-5-azaspiro[2.4]heptan-5-yl]-8-(trifluoromethyl)quinoxaline] stands 5.64 µM. `N#Cc1ccc(N2CC(CN3CCC4(CCCNC4)C3)C3(CC3)C2)c2nccnc12` (stereo not drawn) [Example 22, 8-[7-(2,9-Diazaspiro[4.5]decan-2-ylmethyl)-5-azaspiro[2.4]heptan-5-yl]quinoxaline-5-carbonitrile]: the IC50 is 0.153 µM. The molecule `C[C@H]1CN(c2ccc(C#N)c3ncccc23)C[C@@H]1CN1CCC2(CCNCC2)CC1` [Example 23, 5-[(3S,4R)-3-(3,9-diazaspiro[5.5]undecan-3-ylmethyl)-4-methyl-pyrrolidin-1-yl]quinoline-8-carbonitrile] had an IC50 of 0.045 µM.

Molecule `N#Cc1ccc(N2CC(CN3CC4(CCCNC4)C3)C3(CC3)C2)c2nccnc12` (stereo not drawn) [Example 24, 8-[7-(2,8-Diazaspiro[3.5]nonan-2-ylmethyl)-5-azaspiro[2.4]heptan-5-yl]quinoxaline-5-carbonitrile] gave an IC50 of 0.082 µM. With `N#Cc1ccc(N2CC(CN3C4CCC3CC(N)C4)C3(CC3)C2)c2nccnc12` (stereo not drawn) [Example 25, 8-[7-[(3-Amino-8-azabicyclo[3.2.1]octan-8-yl)methyl]-5-azaspiro[2.4]heptan-5-yl]quinoxaline-5-carbonitrile] the figure was 0.075 µM; with `N#Cc1ccc(N2C[C@H](CN3CCC(N)CC3)[C@@H](C(F)(F)F)C2)c2nccnc12` [Example 26, 8-[(3S,4R)-3-[(4-Amino-1-piperidyl)methyl]-4-(trifluoromethyl)pyrrolidin-1-yl]quinoxaline-5-carbonitrile], 0.258 µM.

For the molecule `C[C@H]1CN(c2ccc(C#N)c3nccnc23)C[C@@H]1CN1CCC2(CCNC2)C1` (stereo partly drawn) [Example 30, 8-[(3S,4R)-3-(2,7-diazaspiro[4.4]nonan-2-ylmethyl)-4-methyl-pyrrolidin-1-yl]quinoxaline-5-carbonitrile], the IC50 came to 0.307 µM. `FC(F)(F)c1ccc(N2CC(CN3CCC4(CCNCC4)CC3)C3(CC3)C2)c2nccnc12` (stereo not drawn) [Example 31, 3-[[5-[8-(Trifluoromethyl)quinoxalin-5-yl]-5-azaspiro[2.4]heptan-7-yl]methyl]-3,9-diazaspiro[5.5]undecane] showed an IC50 of 0.383 µM. `N#Cc1ccc(N2CC(CN3CCC4(CCNCC4)C3)C3(CC3)C2)c2nccnc12` (stereo not drawn) [Example 32, 8-[7-(2,8-Diazaspiro[4.5]decan-2-ylmethyl)-5-azaspiro[2.4]heptan-5-yl]quinoxaline-5-carbonitrile] had an IC50 of 0.08 µM. Consider `C[C@H]1CN(c2ccc(C#N)c3ncccc23)C[C@@H]1CN1CCC2(CCNC2)C1` (stereo partly drawn) [Example 35, 5-[(3S,4R)-3-(2,7-diazaspiro[4.4]nonan-2-ylmethyl)-4-methyl-pyrrolidin-1-yl]quinoline-8-carbonitrile], for which the IC50 came to 0.05 µM. The molecule `N#Cc1ccc(N2CCC(CN3CCC4(CCNCC4)CC3)C2)c2nccnc12` (stereo not drawn) [Example 37, 8-[3-(3,9-Diazaspiro[5.5]undecan-3-ylmethyl)pyrrolidin-1-yl]quinoxaline-5-carbonitrile] gave a 50% inhibitory concentration (IC50) of 0.032 µM. The molecule `N#Cc1ccc(N2CC(CNC3CCCNCC3)C3(CC3)C2)c2nccnc12` (stereo not drawn) [Example 39, 8-[7-[(Azepan-4-ylamino)methyl]-5-azaspiro[2.4]heptan-5-yl]quinoxaline-5-carbonitrile] came in with an IC50 of 0.097 µM.

As for `C[C@@H]1CN(c2ccc(C(F)(F)F)c3nccnc23)C[C@H]1CNC1CCCNCC1` (stereo partly drawn) [Example 40], the IC50 was determined as 0.685 µM.

Turning to `FC(F)(F)c1ccc(N2CC(CN3C[C@H]4CNC[C@H]4C3)C3(CC3)C2)c2nccnc12` (stereo partly drawn) [Example 41, 5-[7-[[(3aR,6aS)-2,3,3a,4,6,6a-hexahydro-H-pyrrolo[3,4-c]pyrrol-5-yl]methyl]-5-azaspiro[2.4]heptan-5-yl]-8-(trifluoromethyl)quinoxaline], the IC50 amounted to 1.2 µM. `N#Cc1ccc(N2CC(CN3CC4(CC(N)C4)C3)C3(CC3)C2)c2nccnc12` (stereo not drawn) [Example 42, 8-[7-[(6-Amino-2-azaspiro[3.3]heptan-2-yl)methyl]-5-azaspiro[2.4]heptan-5-yl]quinoxaline-5-carbonitrile] returned an IC50 of 0.153 µM.

Consider `N#Cc1ccc(N2CC(CN3CCC4(CCNC4)C3)C3(CC3)C2)c2cccnc12` (stereo not drawn) [Example 43, 5-[7-(2,7-Diazaspiro[4.4]nonan-2-ylmethyl)-5-azaspiro[2.4]heptan-5-yl]quinoline-8-carbonitrile], for which the IC50 is 0.062 µM.

Regarding `N#Cc1ccc(N2C[C@H](CN3CCC4(CCCNC4)CC3)[C@@H](C(F)(F)F)C2)c2nccnc12` [Example 45, 8-[(3S,4R)-3-(2,9-diazaspiro[5.5]undecan-9-ylmethyl)-4-(trifluoromethyl)pyrrolidin-1-yl]quinoxaline-5-carbonitrile], the IC50 stood at 0.224 µM.

For the molecule `N#Cc1ccc(N2C[C@H](CN3CCC4(CCNCC4)C3)[C@@H](C(F)(F)F)C2)c2nccnc12` [Example 46, 8-[(3S,4R)-3-(2,8-diazaspiro[4.5]decan-2-ylmethyl)-4-(trifluoromethyl)pyrrolidin-1-yl]quinoxaline-5-carbonitrile], the IC50 was 0.275 µM. On to `N#Cc1ccc(N2C[C@H](CN3CC4(CC(N)C4)C3)[C@@H](C(F)(F)F)C2)c2nccnc12` [Example 47, 8-[(3S,4R)-3-[(6-amino-2-azaspiro[3.3]heptan-2-yl)methyl]-4-(trifluoromethyl)pyrrolidin-1-yl]quinoxaline-5-carbonitrile], for which the midpoint of inhibition, the IC50, lay at 0.177 µM. The molecule `N#Cc1ccc(N2C[C@H](CN3CC4(CCNCC4)C3)[C@@H](C(F)(F)F)C2)c2nccnc12` [Example 48, 8-[(3S,4R)-3-(2,7-diazaspiro[3.5]nonan-2-ylmethyl)-4-(trifluoromethyl)pyrrolidin-1-yl]quinoxaline-5-carbonitrile] yielded an IC50 of 0.097 µM.

The term IC50 denotes the concentration needed to halve the response being measured. High values mean a need for much substance, low ones inhibition by little substance.
